Reference: patent publication US11459333B2, “Substituted pyrrolo[2,3-d]pyrimidines as JAK inhibitors” (Vimalan Biosciences, Inc., priority 2019, dated 2022)

Tests used:
Type in all cases: biochemical
TYK2 = TYK2 (Homo sapiens (Human), UniProt P29597); experiment: JAK/TYK2 Assay (Kinase Glo luminescence), TYK2; settings: 9 nM enzyme, 2 uM ATP, 30 uM IRS-1, 1 hr
Protocol: (§1) 10 mM test compound stock or 1 mM control compound stock (tofocitinib, ruxolitinib or staurosporine) in DMSO was diluted to 0.4 mM in DMSO. A 3-fold series dilution was then performed in DMSO to generate 10 different compound concentrations. The assay was carried out in 384-well white plate. 0.5 uL of 40× compound DMSO solution at different concentrations was mixed with 10 uL 2× enzyme prepared in reaction buffer (20 mM HEPES, 10 mM MgCl2, 0.01% Tween, 1 mM DTT, pH 7.5). 10 uL 2× substrate mixture prepared in reaction buffer was then added to start the reaction. A short spin was done to settle down all solutions to the bottom of the plate. Final concentrations of test compound in the reaction mixture were 10000, 3333, 1111, 370, 123, 41.2, 13.7, 4.57, 1.52 and 0.51 nM. Concentrations of control compound were ten times less. Enzymatic reaction was conducted at 25° C. for 1-2 hours. 10 uL of Kinase Glo Reagents was added to stop the reaction and generate the luminescent signal which was measured using Envision. Luminescence signal was inversely related to kinase activity. […] The mixture without any compound was the positive control.

JAK3 = JAK3 (Homo sapiens (Human), UniProt P52333); experiment: JAK/TYK2 Assay (Kinase Glo luminescence), JAK3; settings: 1.5 nM enzyme, 2 uM ATP, 4 uM pEY, 1 hr
JAK3, sequence (P52333 whole entry, species assumed): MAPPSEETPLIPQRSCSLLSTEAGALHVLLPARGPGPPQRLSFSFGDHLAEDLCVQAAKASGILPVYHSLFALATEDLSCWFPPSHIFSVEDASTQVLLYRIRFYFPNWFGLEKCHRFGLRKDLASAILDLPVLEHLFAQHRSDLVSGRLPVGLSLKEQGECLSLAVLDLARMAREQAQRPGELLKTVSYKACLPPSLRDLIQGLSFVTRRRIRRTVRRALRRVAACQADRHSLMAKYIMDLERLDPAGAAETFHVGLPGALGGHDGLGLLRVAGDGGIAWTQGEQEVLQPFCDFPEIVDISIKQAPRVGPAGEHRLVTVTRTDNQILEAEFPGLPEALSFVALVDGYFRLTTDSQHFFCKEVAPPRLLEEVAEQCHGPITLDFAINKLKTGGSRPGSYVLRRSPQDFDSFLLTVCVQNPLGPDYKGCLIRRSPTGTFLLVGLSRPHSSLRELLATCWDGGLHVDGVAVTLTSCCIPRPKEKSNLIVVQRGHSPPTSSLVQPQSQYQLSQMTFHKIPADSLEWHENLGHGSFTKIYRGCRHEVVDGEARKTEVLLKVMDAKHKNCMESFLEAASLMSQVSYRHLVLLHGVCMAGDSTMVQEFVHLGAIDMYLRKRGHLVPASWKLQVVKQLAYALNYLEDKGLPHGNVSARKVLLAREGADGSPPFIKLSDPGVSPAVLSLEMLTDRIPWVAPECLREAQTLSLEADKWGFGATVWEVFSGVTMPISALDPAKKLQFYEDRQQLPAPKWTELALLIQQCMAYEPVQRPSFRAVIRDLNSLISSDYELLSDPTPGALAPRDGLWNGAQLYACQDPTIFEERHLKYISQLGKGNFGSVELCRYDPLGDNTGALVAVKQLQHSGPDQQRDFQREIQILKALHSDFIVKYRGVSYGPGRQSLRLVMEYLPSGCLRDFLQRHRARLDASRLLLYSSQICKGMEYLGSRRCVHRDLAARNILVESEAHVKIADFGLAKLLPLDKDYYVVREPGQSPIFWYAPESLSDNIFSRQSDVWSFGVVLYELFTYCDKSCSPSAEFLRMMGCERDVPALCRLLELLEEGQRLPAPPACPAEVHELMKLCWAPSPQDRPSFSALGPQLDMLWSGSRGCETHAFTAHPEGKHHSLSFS
Protocol: as §1

JAK1 = JAK1 (Homo sapiens (Human), UniProt P23458); experiment: JAK/TYK2 Assay (Kinase Glo luminescence), JAK1; settings: 7.5 nM enzyme, 2 uM ATP, 30 uM IRS-1, 1 hr
JAK1, sequence (P23458 whole entry, species assumed): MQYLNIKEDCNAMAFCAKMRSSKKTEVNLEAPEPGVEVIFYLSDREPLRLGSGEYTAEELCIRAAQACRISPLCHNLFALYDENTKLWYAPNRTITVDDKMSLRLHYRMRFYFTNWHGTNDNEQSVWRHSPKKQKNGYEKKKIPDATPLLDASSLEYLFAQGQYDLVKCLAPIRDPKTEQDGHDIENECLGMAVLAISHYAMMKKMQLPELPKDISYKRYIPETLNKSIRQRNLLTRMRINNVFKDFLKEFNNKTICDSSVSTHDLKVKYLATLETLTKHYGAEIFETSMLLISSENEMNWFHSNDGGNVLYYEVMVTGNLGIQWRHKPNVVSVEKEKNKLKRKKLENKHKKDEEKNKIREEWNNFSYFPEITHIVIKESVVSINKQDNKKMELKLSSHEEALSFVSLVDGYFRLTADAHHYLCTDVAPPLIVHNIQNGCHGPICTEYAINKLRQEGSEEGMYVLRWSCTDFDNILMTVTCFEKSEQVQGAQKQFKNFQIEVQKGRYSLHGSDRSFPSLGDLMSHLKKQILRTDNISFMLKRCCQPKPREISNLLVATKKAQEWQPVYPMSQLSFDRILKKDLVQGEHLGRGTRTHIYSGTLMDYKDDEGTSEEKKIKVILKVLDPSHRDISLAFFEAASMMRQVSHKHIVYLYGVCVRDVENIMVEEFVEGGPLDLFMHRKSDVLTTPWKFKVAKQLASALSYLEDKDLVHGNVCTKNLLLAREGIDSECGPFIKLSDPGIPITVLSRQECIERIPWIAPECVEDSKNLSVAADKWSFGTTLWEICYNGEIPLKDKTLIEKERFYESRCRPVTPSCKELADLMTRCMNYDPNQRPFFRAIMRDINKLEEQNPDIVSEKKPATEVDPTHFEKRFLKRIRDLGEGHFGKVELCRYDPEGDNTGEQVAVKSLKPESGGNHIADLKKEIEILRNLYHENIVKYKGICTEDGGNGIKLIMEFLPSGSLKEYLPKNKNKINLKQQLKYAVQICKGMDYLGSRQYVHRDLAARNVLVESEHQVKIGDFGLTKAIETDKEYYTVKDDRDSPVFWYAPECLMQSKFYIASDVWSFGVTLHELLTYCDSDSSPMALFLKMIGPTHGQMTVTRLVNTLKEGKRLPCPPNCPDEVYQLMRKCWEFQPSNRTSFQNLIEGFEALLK
Protocol: as §1

JAK2 = JAK2 (Homo sapiens (Human), UniProt O60674); experiment: JAK/TYK2 Assay (Kinase Glo luminescence), JAK2; settings: 0.8 nM enzyme, 2 uM ATP, 4 uM pEY, 1 hr
JAK2, sequence (O60674 whole entry, species assumed): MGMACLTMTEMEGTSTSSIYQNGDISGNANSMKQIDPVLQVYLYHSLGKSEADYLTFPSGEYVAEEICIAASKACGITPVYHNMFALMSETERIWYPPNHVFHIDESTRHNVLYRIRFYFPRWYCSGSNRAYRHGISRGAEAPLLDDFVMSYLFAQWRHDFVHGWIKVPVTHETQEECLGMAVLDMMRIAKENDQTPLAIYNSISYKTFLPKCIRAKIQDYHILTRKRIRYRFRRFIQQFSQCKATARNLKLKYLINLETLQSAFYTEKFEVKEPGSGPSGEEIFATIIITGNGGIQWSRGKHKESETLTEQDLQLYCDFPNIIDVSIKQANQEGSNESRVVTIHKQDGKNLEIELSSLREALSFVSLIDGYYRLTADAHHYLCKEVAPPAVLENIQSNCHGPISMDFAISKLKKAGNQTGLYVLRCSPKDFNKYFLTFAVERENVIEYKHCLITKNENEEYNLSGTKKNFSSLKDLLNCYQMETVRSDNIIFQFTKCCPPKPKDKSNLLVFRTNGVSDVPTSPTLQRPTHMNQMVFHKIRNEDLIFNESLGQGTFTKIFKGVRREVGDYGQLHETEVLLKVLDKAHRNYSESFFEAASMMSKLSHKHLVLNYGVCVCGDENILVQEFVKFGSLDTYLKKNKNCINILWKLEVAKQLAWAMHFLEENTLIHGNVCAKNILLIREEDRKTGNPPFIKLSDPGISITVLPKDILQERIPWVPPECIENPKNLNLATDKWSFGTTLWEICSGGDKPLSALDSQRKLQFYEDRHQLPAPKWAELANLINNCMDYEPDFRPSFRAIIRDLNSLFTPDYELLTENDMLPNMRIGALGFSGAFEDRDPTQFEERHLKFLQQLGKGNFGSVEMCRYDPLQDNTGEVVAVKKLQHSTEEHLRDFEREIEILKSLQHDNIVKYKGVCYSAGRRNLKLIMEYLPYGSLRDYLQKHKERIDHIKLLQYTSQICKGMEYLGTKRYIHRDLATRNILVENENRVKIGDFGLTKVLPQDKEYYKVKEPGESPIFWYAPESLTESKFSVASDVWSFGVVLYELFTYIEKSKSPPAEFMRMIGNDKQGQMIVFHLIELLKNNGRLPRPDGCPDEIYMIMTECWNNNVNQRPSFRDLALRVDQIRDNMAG
Protocol: as §1

TYK2, sequence (P29597 whole entry, species assumed): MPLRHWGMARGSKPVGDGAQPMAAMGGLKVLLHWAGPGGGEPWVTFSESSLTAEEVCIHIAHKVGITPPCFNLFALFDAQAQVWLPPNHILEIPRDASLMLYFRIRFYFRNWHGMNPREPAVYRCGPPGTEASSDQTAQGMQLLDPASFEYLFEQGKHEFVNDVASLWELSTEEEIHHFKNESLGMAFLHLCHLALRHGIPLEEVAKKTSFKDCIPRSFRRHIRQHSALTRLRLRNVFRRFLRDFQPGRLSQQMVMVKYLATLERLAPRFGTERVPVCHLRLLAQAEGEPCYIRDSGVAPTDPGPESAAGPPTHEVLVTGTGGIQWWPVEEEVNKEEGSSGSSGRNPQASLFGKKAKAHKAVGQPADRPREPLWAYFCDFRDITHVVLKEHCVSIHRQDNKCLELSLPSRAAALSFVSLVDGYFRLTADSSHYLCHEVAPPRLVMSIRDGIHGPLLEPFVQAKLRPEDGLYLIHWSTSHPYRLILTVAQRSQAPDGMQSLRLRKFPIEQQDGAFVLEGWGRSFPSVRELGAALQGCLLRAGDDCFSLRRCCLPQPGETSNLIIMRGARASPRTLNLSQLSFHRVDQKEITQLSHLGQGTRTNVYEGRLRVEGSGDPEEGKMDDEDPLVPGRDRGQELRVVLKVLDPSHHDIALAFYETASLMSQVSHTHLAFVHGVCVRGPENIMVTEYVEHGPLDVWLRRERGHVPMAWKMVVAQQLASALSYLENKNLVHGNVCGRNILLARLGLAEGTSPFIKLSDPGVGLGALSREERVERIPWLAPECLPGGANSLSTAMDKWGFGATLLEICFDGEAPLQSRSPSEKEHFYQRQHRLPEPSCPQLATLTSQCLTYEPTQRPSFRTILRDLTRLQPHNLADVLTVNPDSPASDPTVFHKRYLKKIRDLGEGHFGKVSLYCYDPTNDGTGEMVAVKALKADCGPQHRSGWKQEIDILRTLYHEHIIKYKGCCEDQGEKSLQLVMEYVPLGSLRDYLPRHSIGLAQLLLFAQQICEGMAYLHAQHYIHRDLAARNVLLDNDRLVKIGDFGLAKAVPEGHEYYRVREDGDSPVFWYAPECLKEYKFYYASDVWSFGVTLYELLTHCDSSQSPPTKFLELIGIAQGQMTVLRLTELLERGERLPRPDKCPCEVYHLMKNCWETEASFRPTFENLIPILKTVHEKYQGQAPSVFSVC

Row | Compound | IC50 (TYK2) [nM] | IC50 (JAK3) [nM] | IC50 (JAK1) [nM] | IC50 (JAK2) [nM]
1 | CCOC(=O)[C@@H]1C[C@@H](OC(=O)Cn2cc(Nc3ncc4ccn(C[C@@H](CC)C(C)C)c4n3)cn2)CN1C [Compound 133, ethyl (2S,4R)-4-(2-(4-((7-((S)-2-ethyl-3-methylbutyl)-7H-pyrrolo[2,3-d]pyrimidin-2-yl)amino)-1H-pyrazol-1-yl)acetoxy)-1-methylpyrrolidine-2-carboxylate] | < 100 | < 100 | < 100 | < 100
2 | CC[C@H](Cn1ccc2cnc(Nc3cnn(CC(=O)O[C@@H]4C[C@@H](C(=O)OC(C)C)N(C)C4)c3)nc21)C(C)C [Compound 134, isopropyl (2S,4R)-4-(2-(4-((7-((S)-2-ethyl-3-methylbutyl)-7H-pyrrolo[2,3-d]pyrimidin-2-yl)amino)-1H-pyrazol-1-yl)acetoxy)-1-methylpyrrolidine-2-carboxylate] | 100 to 1000 | 100 to 1000 | < 100 | 100 to 1000
3 | CC[C@H](Cn1ccc2cnc(Nc3cnn(CC(=O)O[C@@H]4C[C@@H](C(=O)OC)N(C)C4)c3)nc21)C(C)C [Compound 131, methyl (2S,4R)-4-(2-(4-((7-((S)-2-ethyl-3-methylbutyl)-7H-pyrrolo[2,3-d]pyrimidin-2-yl)amino)-1H-pyrazol-1-yl)acetoxy)-1-methylpyrrolidine-2-carboxylate] | < 100 | < 100 | < 100 | < 100
4 | CC[C@H](Cn1ccc2cnc(Nc3cnn(CC(=O)O[C@@H]4C[C@@H](C(=O)O)N(C)C4)c3)nc21)C(C)C [Compound 135, (2S,4R)-4-(2-(4-((7-((S)-2-ethyl-3-methylbutyl)-7H-pyrrolo[2,3-d]pyrimidin-2-yl)amino)-1H-pyrazol-1-yl)acetoxy)-1-methylpyrrolidine-2-carboxylic acid] | 100 to 1000 |  | 100 to 1000 | 100 to 1000
